Laboratory results from PubChem BioAssay (NCI).
Several values for one entry are separate records, joined by “and”; a condition that tells them apart may be missing. Identical values can stand only once.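 How tested: cells in 96-well plates exposed to compound for 48 hours at five concentrations. Abbreviation: GI50, concentration required for 50% inhibition of growth. The concentration for full growth arrest is given as TGI.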

Assays:
Test in all cases: NCI tumour cell line growth inhibition, 48 h
A549 NSCLC = test system: A549 NSCLC
ACHN renal = test system: ACHN renal
MCF7 breast = test system: MCF7 breast
T-47D breast = test system: T-47D breast
U251 CNS = test system: U251 CNS
UACC-257 melanoma = test system: UACC-257 melanoma
DMS 114 small cell lung = test system: DMS 114 small cell lung
DMS 273 small cell lung = test system: DMS 273 small cell lung
M19-MEL melanoma = test system: M19-MEL melanoma
P388/ADR leukemia = test system: P388/ADR leukemia
SR leukemia = test system: SR leukemia

SMILES	TGI (A549 NSCLC) [µM]	TGI (ACHN renal) [µM]	TGI (MCF7 breast)	TGI (T-47D breast) [µM]	TGI (U251 CNS) [µM]	TGI (UACC-257 melanoma) [µM]	TGI (DMS 114 small cell lung)	TGI (DMS 273 small cell lung) [µM]	TGI (M19-MEL melanoma)	TGI (P388/ADR leukemia) [µM]	TGI (SR leukemia) [µM]	GI50 (DMS 114 small cell lung) [µM]	GI50 (DMS 273 small cell lung) [µM]	GI50 (M19-MEL melanoma) [µM]	GI50 (MCF7 breast) [µM]	GI50 (ACHN renal) [µM]	GI50 (SR leukemia) [µM]	GI50 (T-47D breast) [µM]	GI50 (U251 CNS) [µM]	GI50 (UACC-257 melanoma) [µM]
N#Cc1c(C#N)c(SSc2c(C#N)c(C#N)c(N)n2-c2ccccc2)n(-c2ccccc2)c1N	> 57.2	21.4	5.84 µM	5.29	42.4	> 69.8	–	–	–	–	–	–	–	–	–	–	–	–	–	–
CN1OC(=O)N(C)C1c1ccccc1 (stereo unspecified)	> 100	–	> 100 µM	–	> 100	> 100	> 100 µM	> 100	> 100 µM	> 100	–	–	–	–	–	–	–	–	–	–
CNC(=O)CN1CC(=O)N(C)C(=O)C1	–	–	–	–	> 100	–	–	> 100	> 100 µM	–	> 100	–	–	–	–	–	–	–	–	–
O=C(O)CCC1(c2ccccc2)NC(=O)NC1=O (stereo unspecified)	> 100	> 100	> 100 µM	> 100	> 100	> 100	–	–	–	–	> 100	–	–	–	–	–	–	–	–	–
COc1ccc2c(c1)c1cc(OC)ccc1n2CCCCOc1ccc(-c2c3ccccc3c(-c3ccc(OCCCCn4c5ccc(OC)cc5c5cc(OC)ccc54)cc3)c3ccccc23)cc1	> 100	> 100	–	–	–	–	> 100 µM	> 100	> 100 µM	–	–	–	–	–	–	–	–	–	–	–
CC(=O)Oc1c(OC(C)=O)c(-c2ccc(O)c(O)c2)c(O)c(O)c1-c1ccc(O)cc1	> 100	–	35.9 µM and > 100 µM	–	> 100	> 100	44 µM and 57.4 µM	> 100	53.7 µM and 68.5 µM	50	–	19.1	67.1	18.1	18.8	–	–	–	–	–
Nc1ccn(C2OC(COP(=O)(O)Oc3ccccc3)C(O)C2O)c(=O)n1 (stereo unspecified)	> 100	–	> 100 µM	–	> 100	> 100	> 100 µM	> 100	> 100 µM	> 100	–	–	–	–	–	–	–	–	–	–
COc1ccc(NC2=NCCO2)c2ccccc12	> 10	> 10	> 10 µM	> 10	–	–	–	–	–	–	> 10	–	–	–	–	–	–	–	–	–
Cc1nc(-c2nc([N+](=O)[O-])c([N+](=O)[O-])[nH]2)cs1	> 100	> 100	–	–	> 100	> 100	> 100 µM	> 100	> 100 µM	–	> 100	–	–	–	–	–	–	–	–	–
CCN1/C(=C/C(C)=C/c2sc3ccccc3[n+]2CC)Sc2ccccc21	1.42	3.13	–	–	–	–	–	–	2.16 µM	–	1.75	–	–	–	–	–	–	–	–	–
O/N=C\c1cc(O)c(O)c(/C=N/O)c1	> 100	80.3	> 100 µM	> 100	> 100	> 100	–	–	–	–	> 100	–	–	–	–	–	–	–	–	–
Cc1ccc2[nH]c3c(C)c4ccncc4c(C)c3c2c1	2.63	2.28	2.32 µM	–	2.46	2.94	2.71 µM	2.13	2.75 µM	3.62	4.25	–	–	–	–	–	–	–	–	–
O=C(CCN1CCCC1)Nc1ccc2c(NCCCc3ccccc3)c3ccccc3nc2c1	–	2.8	1.8 µM	3.91	2.36	3.64	–	–	–	–	2.55	–	–	–	0.467	1.42	0.467	1.34	1.04	1.81
COc1cc2c(cc1OC)CCN=C2	–	–	> 100 µM	> 100	> 100	> 100	–	–	–	–	> 100	–	–	–	–	–	–	–	–	–
